From PMC2783503 (Journal of medicinal chemistry, 2009)
Like-named read-outs stand apart in the source and are kept apart here. Non-standard residues stand in square brackets, D forms with d. Residues, ends and D or L forms follow the SMILES beside them. Phe(2,6-Me2,4-CONH2) = Cc1cc(C(N)=O)cc(C)c1C[C@H](N)C(=O)O; Dmt = Cc1cc(O)cc(C)c1C[C@H](N)C(=O)O; Tic = O=C(O)[C@@H]1Cc2ccccc2CN1

Legend:
δ opioid receptor [1] = target: T1, δ opioid receptor (Mus musculus, UniProt P32300); assay: MVD
μ opioid receptor [2] = assay: GPI; set-up: species or system guinea pig
δ opioid receptor [3] = target: T1, δ opioid receptor; settings: δ antagonist activity; ref Schiller et al.[10]; cited from earlier work
μ opioid receptor [4] = settings: result in words; ref Schiller et al.[10]; cited from earlier work
μ opioid receptor [5] = target: μ opioid receptor (UniProt P33535); settings: read-out: Ki^μ; ref Schiller et al.[10]; cited from earlier work
κ opioid receptor = κ opioid receptor (UniProt P41144); settings: read-out: Ki^κ; ref Schiller et al.[10]; cited from earlier work
Sequence of κ opioid receptor (P41144 whole entry): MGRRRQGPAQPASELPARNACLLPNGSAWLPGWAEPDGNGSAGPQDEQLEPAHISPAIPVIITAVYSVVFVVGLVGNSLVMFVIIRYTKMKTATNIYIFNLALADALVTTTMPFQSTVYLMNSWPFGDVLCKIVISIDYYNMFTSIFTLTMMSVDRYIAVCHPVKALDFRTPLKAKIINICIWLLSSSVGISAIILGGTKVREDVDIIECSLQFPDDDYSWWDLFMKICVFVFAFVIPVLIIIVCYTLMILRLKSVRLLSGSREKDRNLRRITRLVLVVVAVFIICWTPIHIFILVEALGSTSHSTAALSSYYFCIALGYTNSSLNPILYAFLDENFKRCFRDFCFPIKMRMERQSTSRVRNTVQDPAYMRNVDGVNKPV

T1 sequence (P32300 whole entry): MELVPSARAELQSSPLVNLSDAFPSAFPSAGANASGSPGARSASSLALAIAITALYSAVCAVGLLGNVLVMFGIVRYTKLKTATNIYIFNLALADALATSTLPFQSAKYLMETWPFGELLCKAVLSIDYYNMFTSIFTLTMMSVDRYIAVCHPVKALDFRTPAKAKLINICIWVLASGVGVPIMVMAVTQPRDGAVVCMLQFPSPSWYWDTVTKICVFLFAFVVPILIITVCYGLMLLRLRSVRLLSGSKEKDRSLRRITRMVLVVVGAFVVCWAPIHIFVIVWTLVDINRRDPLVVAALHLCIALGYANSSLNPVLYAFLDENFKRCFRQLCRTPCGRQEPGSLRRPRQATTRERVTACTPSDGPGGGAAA
Sequence of μ opioid receptor (UniProt P33535) (P33535 whole entry): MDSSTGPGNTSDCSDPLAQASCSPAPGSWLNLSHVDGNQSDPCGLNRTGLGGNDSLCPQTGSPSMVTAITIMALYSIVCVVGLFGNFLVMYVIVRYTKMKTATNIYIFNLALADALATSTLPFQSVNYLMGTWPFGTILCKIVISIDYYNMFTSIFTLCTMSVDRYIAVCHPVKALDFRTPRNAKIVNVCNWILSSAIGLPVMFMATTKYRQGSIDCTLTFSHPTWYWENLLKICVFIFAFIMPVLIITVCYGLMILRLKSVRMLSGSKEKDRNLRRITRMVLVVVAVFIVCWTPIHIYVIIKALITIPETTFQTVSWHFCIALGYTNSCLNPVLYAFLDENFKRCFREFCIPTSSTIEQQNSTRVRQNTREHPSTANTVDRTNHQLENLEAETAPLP

N[C@@H](Cc1ccc(O)cc1)C(=O)N1Cc2ccccc2C[C@H]1C(=O)O [compound 9, H-Tyr-Tic-OH] (H-Tyr-[Tic]-OH)
Kb (δ opioid receptor [1]): 0.263 ± 0.04 µM | GPI activity (μ opioid receptor [2]; result in words): inactive

Cc1cc(C(N)=O)cc(C)c1C[C@H](N)C(=O)N1Cc2ccccc2C[C@H]1C(=O)N[C@@H](Cc1ccccc1)C(=O)N[C@@H](Cc1ccccc1)C(=O)O [compound 12, H-Cdp-Tic-Phe-Phe-OH] (H-[Phe(2,6-Me2,4-CONH2)][Tic]FF-OH)
Kb (δ opioid receptor [1]): 0.000627 ± 5.8e-05 µM | GPI Ke^μ (μ opioid receptor [2]; μ antagonist activity): 3.07 ± 0.26 µM

H-Y[Tic]FF-OH [compound 8]
MVD Ke^δ (δ opioid receptor [3]): 4.80 ± 0.20 nM

H-[Dmt]-[Tic]-OH [compound 11]
GPI activity (μ opioid receptor [4]): inactive | Ki (μ opioid receptor [5]): 1.36 ± 0.16 µM | Ki (κ opioid receptor): > 1 µM

H-[Dmt][Tic]FF-OH [compound 10]
MVD Ke^δ (δ opioid receptor [3]): 0.196 ± 0.035 nM
